Source: patent US7422694B2, “Process for the microbiological decontamination of water by means of photosensitive agents” (priority 2001, dated 2008)

How the values were obtained:
Staphylococcus aureus = assay: Decrease in Staphylococcus aureus viability on exposure to visible light in the presence of hematoporphyrin (FIG. 8); assay type: cell-based; settings: hematoporphyrin at 0.1 pg/ml and 1 μg/ml, cells in stationary or logarithmic growth phase
Description: FIG. 8 is a plot where the experimental results relating to the decrease in Staphylococcus aureus viability on exposure to visible light in the presence of hematoporphyrin at 0.1 pg/ml (circles) and 1 μg/ml (squares) concentrations were plotted. Bacterial cells were either in the stationary (closed symbols) or in the logarithmic (open symbols) growth phase.

[1] = system: wild and antibiotics-resistant bacterial strains (e.g. Streptococcus and Staphylococcus strains), yeasts (e.g. Candida strains); assay: Phototoxicity of hematoporphyrin towards bacterial strains and yeasts; assay type: cell-based

Substance: hematoporphyrin
- photosensitised inactivation of Staphylococcus aureus (Staphylococcus aureus): effectively this porphyrin photosensitises the inactivation
- phototoxicity [1]: exhibited phototoxicity
